≈ marks a conversion by molar mass, not a printed value. Bounds are passed on as bounds.

Here are results for three molecules from patent US12162866B1, “Crystal form of pyrazolyl-amino-pyrimidinyl derivative, and preparation method therefor and use thereof” (LYNK PHARMACEUTICALS CO., LTD., priority 2023, dated 2024).

One data set is described as follows: simulated dry grinding. The data set is classed as physicochemical. Conditions: dry grinding for 3 min.
The target of the next data set is T1, JAK3 (Homo sapiens, UniProt P52333).
T1 sequence (P52333 1-1124): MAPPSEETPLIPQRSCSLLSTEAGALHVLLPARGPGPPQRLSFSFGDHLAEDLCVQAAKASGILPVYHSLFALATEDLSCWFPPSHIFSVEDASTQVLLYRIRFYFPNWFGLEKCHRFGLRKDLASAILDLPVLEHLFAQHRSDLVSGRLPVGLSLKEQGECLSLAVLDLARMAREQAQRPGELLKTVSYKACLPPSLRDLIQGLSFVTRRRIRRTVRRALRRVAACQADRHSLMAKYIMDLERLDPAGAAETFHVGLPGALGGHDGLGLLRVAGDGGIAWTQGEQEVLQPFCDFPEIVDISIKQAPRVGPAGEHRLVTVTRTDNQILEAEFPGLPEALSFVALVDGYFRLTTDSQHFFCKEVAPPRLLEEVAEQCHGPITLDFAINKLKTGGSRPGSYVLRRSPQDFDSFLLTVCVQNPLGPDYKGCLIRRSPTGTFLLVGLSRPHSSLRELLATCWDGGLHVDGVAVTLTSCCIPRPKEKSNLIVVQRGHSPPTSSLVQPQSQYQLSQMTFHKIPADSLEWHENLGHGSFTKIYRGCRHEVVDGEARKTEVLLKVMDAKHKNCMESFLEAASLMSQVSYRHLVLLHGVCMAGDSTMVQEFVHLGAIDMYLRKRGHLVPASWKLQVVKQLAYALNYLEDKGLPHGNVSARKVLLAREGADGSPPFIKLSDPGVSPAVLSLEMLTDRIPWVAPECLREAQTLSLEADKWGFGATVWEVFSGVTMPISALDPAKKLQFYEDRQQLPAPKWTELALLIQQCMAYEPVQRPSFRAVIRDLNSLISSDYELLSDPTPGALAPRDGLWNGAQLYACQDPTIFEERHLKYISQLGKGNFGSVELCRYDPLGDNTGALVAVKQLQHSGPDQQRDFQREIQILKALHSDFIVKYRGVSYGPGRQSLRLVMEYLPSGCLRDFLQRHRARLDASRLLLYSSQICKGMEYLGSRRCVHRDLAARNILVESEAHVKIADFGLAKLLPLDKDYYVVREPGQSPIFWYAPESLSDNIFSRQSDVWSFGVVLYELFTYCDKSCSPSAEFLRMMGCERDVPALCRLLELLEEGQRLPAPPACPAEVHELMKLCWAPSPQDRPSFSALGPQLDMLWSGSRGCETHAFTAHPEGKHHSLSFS
Briefly: migration detection kinase assay, JAK3. The data set is classed as biochemical. Conditions: 1 mM ATP.

The target in the next data set is TYK2 (Homo sapiens, UniProt P29597). Briefly: migration detection kinase assay, TYK2. The data set is classed as biochemical.
Data set [1] is described as follows: press testing (crystal transformation under pressure). The data set is classed as physicochemical. The settings on record: 10 Mpa, 5 min.
Data set [2] is described as follows: water activity experiment at 25° C. The data set is classed as physicochemical. The settings on record: for XRPD result: 25° C. The text has this:
The resulting solid was filtered and subjected to XRPD characterization.

Data set [3] in a line: dynamic solubility in simulated gastrointestinal fluid. The data set is classed as physicochemical. Conditions: for solubility at 1 h / solubility at 4 h / solubility at 24 h: 37° C.; for XRPD of remaining solid: after 24 h. As to the method:
After 24 h, the pH of the suspension was determined. The remaining suspension was centrifuged, and the remaining solid was subjected to XRPD characterization.

In a further data set the target is JAK1 (Homo sapiens, UniProt P23458). The data set can be described thus: migration detection kinase assay, JAK1. The data set is classed as biochemical.
Another data set is described as follows: hygroscopicity by DVS. The data set is classed as physicochemical.
The next data set can be described thus: simulated wet grinding. The data set is classed as physicochemical. Conditions: 3 min.
Another data set addresses JAK2 (Homo sapiens, UniProt O60674). The data set can be described thus: migration detection kinase assay, JAK2.
Data set [4] is described as follows: stability investigation (influencing factor, accelerated, intermediate, long term). The data set is classed as physicochemical.
For data set [5] the following is noted: phase II and phase III, treatment of AD; cited from earlier work.
The test system of the next data set is keratinocytes. Briefly: proliferation of keratinocytes. The data set is classed as cell-based. Conditions: preclinical study.
Another data set has as its system p-STAT signaling pathway. The data set can be described thus: p-STAT signaling pathway induced by cytokines. The settings on record: in vivo and in vitro.
[6] abbreviates: fassif, thermodynamic from solid, simulated pre-meal intestinal fluid.
[7] abbreviates: fessif, thermodynamic from solid, simulated postprandial intestinal fluid.
[8] abbreviates: simulated gastric fluid, thermodynamic from solid, simulated gastric juice.

Sequence of TYK2 (P29597 whole entry): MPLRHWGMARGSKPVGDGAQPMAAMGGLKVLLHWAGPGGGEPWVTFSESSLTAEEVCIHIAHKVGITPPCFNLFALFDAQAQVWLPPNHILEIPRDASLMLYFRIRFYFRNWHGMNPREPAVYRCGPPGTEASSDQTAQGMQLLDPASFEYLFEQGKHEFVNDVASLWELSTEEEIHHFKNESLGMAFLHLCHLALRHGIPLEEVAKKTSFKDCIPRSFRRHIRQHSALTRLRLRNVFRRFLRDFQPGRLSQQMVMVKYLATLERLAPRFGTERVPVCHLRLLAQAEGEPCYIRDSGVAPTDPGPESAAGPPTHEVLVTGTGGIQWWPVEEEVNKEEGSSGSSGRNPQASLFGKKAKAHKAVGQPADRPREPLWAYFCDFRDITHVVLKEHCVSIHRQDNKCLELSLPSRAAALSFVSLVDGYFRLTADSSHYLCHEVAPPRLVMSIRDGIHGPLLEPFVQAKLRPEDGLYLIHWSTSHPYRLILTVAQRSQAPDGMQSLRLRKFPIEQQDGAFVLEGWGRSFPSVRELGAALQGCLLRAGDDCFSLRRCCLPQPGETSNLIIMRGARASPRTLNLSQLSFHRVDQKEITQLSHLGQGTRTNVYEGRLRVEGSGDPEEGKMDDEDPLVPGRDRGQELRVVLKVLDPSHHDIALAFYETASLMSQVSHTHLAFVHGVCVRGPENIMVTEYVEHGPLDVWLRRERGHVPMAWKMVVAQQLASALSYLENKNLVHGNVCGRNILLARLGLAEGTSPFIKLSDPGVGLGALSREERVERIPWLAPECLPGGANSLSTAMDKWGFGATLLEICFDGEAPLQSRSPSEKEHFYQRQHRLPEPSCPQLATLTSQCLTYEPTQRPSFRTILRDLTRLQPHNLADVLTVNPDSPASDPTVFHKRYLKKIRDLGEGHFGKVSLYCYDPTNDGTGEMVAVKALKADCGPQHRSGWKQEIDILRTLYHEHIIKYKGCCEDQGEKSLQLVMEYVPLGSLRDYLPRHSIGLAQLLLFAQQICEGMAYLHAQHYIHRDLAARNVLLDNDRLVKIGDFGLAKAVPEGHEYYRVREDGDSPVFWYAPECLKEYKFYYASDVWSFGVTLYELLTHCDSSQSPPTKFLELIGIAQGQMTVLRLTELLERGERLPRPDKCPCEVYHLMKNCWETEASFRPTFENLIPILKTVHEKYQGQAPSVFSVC
Sequence of JAK2 (O60674 whole entry): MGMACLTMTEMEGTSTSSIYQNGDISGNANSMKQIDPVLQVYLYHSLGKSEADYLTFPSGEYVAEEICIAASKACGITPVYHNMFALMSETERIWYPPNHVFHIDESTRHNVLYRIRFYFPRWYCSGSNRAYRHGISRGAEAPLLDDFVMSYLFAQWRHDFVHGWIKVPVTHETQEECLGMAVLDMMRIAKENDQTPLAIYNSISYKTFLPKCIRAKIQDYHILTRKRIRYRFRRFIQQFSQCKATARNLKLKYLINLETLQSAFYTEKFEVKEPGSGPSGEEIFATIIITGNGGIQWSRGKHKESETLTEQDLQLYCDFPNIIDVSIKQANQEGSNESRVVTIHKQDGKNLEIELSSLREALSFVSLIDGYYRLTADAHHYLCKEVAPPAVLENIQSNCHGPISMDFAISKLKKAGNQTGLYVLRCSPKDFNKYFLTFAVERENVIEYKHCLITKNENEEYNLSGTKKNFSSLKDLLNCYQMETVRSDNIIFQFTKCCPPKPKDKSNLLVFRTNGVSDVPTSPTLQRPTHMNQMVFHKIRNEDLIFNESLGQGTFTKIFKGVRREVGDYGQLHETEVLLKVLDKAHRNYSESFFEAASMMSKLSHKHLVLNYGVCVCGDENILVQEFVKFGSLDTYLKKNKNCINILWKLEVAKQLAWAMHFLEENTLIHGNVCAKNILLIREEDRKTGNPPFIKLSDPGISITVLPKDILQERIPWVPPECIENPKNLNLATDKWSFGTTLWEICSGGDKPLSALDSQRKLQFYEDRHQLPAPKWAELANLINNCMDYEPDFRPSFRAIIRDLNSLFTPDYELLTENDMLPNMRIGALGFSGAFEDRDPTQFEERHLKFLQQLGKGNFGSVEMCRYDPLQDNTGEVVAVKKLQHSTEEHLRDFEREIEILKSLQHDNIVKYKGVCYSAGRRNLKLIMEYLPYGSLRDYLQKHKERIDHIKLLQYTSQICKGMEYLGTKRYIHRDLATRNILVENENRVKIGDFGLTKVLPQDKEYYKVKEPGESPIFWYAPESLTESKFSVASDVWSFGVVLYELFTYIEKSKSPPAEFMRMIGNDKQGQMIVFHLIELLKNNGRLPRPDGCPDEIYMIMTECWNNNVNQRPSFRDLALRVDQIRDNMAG
Sequence of JAK1 (P23458 whole entry): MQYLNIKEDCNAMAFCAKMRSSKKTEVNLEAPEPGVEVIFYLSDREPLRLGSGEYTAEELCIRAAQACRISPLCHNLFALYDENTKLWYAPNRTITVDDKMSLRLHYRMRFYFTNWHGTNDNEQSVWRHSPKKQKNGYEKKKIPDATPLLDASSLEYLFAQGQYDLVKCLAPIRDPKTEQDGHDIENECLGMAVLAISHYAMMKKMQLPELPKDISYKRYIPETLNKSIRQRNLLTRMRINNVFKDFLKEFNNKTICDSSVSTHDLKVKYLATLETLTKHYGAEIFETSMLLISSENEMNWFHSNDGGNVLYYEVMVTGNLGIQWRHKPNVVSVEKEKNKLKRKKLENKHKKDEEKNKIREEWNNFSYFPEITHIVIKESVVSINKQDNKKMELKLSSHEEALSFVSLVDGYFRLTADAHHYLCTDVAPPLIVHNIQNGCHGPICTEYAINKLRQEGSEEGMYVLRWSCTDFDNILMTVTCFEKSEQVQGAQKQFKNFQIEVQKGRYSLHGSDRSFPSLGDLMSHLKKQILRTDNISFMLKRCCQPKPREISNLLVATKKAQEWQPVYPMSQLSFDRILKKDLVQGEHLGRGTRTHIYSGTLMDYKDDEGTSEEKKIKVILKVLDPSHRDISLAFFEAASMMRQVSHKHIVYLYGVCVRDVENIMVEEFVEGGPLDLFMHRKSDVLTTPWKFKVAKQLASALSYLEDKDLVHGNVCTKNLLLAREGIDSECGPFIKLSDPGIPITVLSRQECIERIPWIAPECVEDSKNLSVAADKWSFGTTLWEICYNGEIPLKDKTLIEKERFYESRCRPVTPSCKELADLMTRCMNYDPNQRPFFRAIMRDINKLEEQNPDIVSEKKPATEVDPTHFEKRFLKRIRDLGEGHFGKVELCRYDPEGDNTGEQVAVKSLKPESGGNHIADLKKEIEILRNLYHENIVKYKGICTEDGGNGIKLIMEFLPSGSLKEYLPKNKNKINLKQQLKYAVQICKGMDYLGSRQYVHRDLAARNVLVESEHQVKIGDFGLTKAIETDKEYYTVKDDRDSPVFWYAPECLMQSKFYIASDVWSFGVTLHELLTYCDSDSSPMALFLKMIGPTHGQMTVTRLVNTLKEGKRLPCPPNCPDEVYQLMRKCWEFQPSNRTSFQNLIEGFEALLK

Usually IC50 stands for the concentration needed to halve the response being measured. The term solubility denotes how much of the substance goes into solution per volume. Regarding `Cc1cnc(Nc2cnn(C3CC(C)(C)OC(C)(C)C3)c2)nc1-c1ccc(C(=O)NCC#N)cc1` [crystal form I], the “change of crystal form after dry grinding” value in the data set “simulated dry grinding” is listed as “The crystal form is not changed, and”. In addition, the “change of crystallinity after dry grinding” value in the data set “simulated dry grinding” is “the crystallinity is slightly reduced”. The IC50 against JAK3 is 275 nM; against TYK2 (1 mM ATP) it was 1 nM; at JAK1 (1 mM ATP), 10 nM; against JAK2, less than 0.51 nM. The XRPD after pressing result in data set [1] was “Crystal form I”. In data set [1], the “change of crystal form after pressing” value is “The crystal form is not changed,”. Further, the XRPD result in [2] (Acetone (a.w. = 0), 10 days) is listed as “Crystal form I”; in data set [2] (Acetone (a.w. = 0), 22 days), “Crystal form I”; in [2] (Acetone/water 36:64 (a.w. = 0.9), 12 days), “Crystal form I”; in data set [2] (Acetone/water 60.4:39.6 (a.w. = 0.8), 12 days), “Crystal form I”; in data set [2] (Acetone/water 75.8:24.2 (a.w. = 0.7), 12 days), “Crystal form I”; in data set [2] (Acetone/water 91:9 (a.w. = 0.6), 10 days), “Crystal form I”. In addition, the XRPD result is “Crystal form I” in data set [2] (Acetone/water 91:9 (a.w. = 0.6), 22 days); “Crystal form I” in data set [2] (Acetone/water 94:6 (a.w. = 0.5), 10 days); “Crystal form I” in data set [2] (Acetone/water 94:6 (a.w. = 0.5), 22 days); “Crystal form I” in [2] (Acetone/water 97:3 (a.w. = 0.3), 10 days); “Crystal form I” in data set [2] (Acetone/water 97:3 (a.w. = 0.3), 22 days); “Crystal form I” in [2] (Acetone/water 99:1 (a.w. = 0.1), 10 days). Also, the XRPD result was “Crystal form I” in [2] (Acetone/water 99:1 (a.w. = 0.1), 22 days); “Crystal form I” in data set [2] (Water (a.w. = 1), 10 days); “Crystal form I” in [2] (Water (a.w. = 1), 22 days). In addition, in data set [2] (up to 22 days, water activity range 1% to 100%), the “crystal form stability over water activity range” value is “not transformed into a hydrate or other crystal forms”. Moreover, the solubility at 1 h is 100 µg/mL (≈ 212 µM) in data set [3] (setting [6]), 389 µg/mL (≈ 822 µM) in data set [3] (setting [7]) and 97.4 µg/mL (≈ 206 µM) in data set [3] (setting [8]). Moreover, the solubility at 4 h in [3] (setting [6]) was 111 µg/mL (≈ 234 µM); in [3] (setting [7]), 474 µg/mL (≈ 1000 µM); in data set [3] (setting [8]), 92.3 µg/mL (≈ 195 µM). The solubility at 24 h is 120 µg/mL (≈ 253 µM) in [3] (setting [6]), 627 µg/mL (≈ 1320 µM) in data set [3] (setting [7]) and 102 µg/mL (≈ 215 µM) in [3] (setting [8]). Moreover, the “XRPD of remaining solid” value in data set [3] (simulated gastric juice), in data set [3] (simulated postprandial intestinal fluid) and in data set [3] (simulated pre-meal intestinal fluid) was “Crystal form I” in each case. The solubility in [3] (simulated gastrointestinal fluid, 37 °C, fassgf or other biorelevant, thermodynamic from solid, summary statement) was more than 8 µg/mL. In addition, the “pH after 24 h” value was 2.1 (simulated in data set [3] (suspension in simulated gastric juice), 5.1 (simulated in data set [3] (suspension in simulated postprandial intestinal fluid) and 6.6 (simulated in data set [3] (suspension in simulated pre-meal intestinal fluid). The “hygroscopicity” value in “hygroscopicity by DVS” is reported as “no obvious hygroscopicity”. Besides, the “Hygroscopicity, weight gain (DVS)” value in “hygroscopicity by DVS” (under 95% RH) is “Weight gain of 0.9%”. Also, the “XRPD after wet grinding” value in the data set “simulated wet grinding” (Ethanol) and in the data set “simulated wet grinding” (Water) was “Crystal form I” each time. Also, the “change of crystal form after wet grinding” value in the data set “simulated wet grinding” (Ethanol) was “The crystal form is not changed, and”; in the data set “simulated wet grinding” (Water) it was “The crystal form is not changed, and”. Besides, the “change of crystallinity after wet grinding” value in the data set “simulated wet grinding” (Ethanol) and in “simulated wet grinding” (Water) was “the crystallinity is slightly reduced” in each case. In addition, the “stability: appearance, related substances, assay, moisture, crystal form, content, microbial limit” value is “microbial limit were not changed” in data set [4] (accelerated condition 40° C.±2° C./75%±5% RH, 6 months) and “microbial limit were not changed” in data set [4] (long-term condition 25° C.±2° C./60%±5% RH, 18 months). The “Conclusion on crystal form” value in data set [4] (accelerated, intermediate condition and long term tests) was “keeps stable”; in [4] (influencing factor test: high temperature, high humidity, illumination), “keeps stable”. Also, the “stability: appearance, related substances, assay, moisture, crystal form, content” value in [4] (high humidity of 92.5% RH, 30 days) is recorded as “not changed”; in data set [4] (high temperature of 60° C., 30 days), “not changed”; in data set [4] (illumination of 1×ICH (1.2×10^6 Lux·hr, 200 w·hr/m^2)), “not changed”.

Turning to `N#CC[C@H](C1CCCC1)n1cc(-c2ncnc3[nH]ccc23)cn1` [Ruxolitinib], the tolerability result in data set [5] is listed as “well tolerated”.

As to `Cc1cnc(Nc2cnn(C3CC(C)(C)OC(C)(C)C3)c2)nc1-c1ccc(C(=O)NCC#N)cc1` [LNK01004], on TYK2 (preclinical study), the “inhibitory effect on TYK2” value is listed as “strong inhibitory effect”. Moreover, the “inhibition of proliferation of keratinocytes” value in the data set on keratinocytes is recorded as “can also inhibit the proliferation of keratinocytes”. For the same molecule, the “inhibitory effect on JAK1” value at JAK1 (preclinical study) is on record as “strong inhibitory effect”. On JAK2 (preclinical study), the “inhibitory effect on JAK2” value was “strong inhibitory effect”. Moreover, the “inhibition of p-STAT signaling pathway induced by multiple cytokines” value in the data set with p-STAT signaling pathway was “can inhibit p-STAT signaling pathway”.
